The source of these data is ChEMBL document CHEMBL1130623, “Novel cytokine release inhibitors. Part II: Steroids” (Bioorg Med Chem Lett, 1998).

For experiment [1], the species on record is Homo sapiens. The experiment can be described thus: Compound was evaluated for percentage inhibition of Interleukin (IL1-beta) release in human monocytes at a concentration of 3000 nM. The experiment is classed as functional.
Experiment [2] is filed under the species Homo sapiens. Description: Compound was evaluated for percentage inhibition of Interleukin (IL1-beta) release in human monocytes at a concentration of 1000 nM. The experiment is classed as functional.
The species named for experiment [3] is Homo sapiens. The experiment can be described thus: (§1) Compound was evaluated for inhibition of Interleukin (IL1-beta) release in human monocytes. It is filed as functional.
The nature of experiment [4]: as §1. It is filed as functional, cell-based.

Usually inhibition stands for the relative decrease from the control value, in per cent. `C[C@]12CC[C@H]3[C@@H](CCC4=CC(=O)C(O)=C[C@@]43C)[C@@H]1CC[C@@H]2O`: the inhibition at 3 µM in the experiment listed under Homo sapiens [1] was determined as 36%.
In the case of `C[C@]12CC[C@H]3C(=CCc4cc(O)ccc43)[C@@H]1CCC2=O` [EQUILIN], the inhibition at 1 µM in the experiment listed under Homo sapiens [2] is -11%.
For the compound `C[C@]12CCc3c(ccc4cc(O)ccc34)[C@@H]1CCC2=O` [EQUILENIN], the inhibition at 1 µM in the experiment listed under Homo sapiens [2] came to 27%.
For `C[C@]12CC[C@@H]3c4ccc(O)cc4C=C[C@H]3[C@@H]1CCC2=O`, the inhibition at 1 µM in the experiment listed under Homo sapiens [2] turned out to be 1%.
Broadly, the IC50 is the midpoint of a concentration-inhibition curve. The low end stands for higher potency, the high end for lower potency. Consider `CC(=O)OC1=C[C@@]2(C)C(=CC1=O)C=C[C@H]1[C@@H]3CC[C@H](OC(C)=O)[C@@]3(C)CC[C@@H]12`, for which it took 3000 nM to reach half-maximal inhibition in the experiment listed under Homo sapiens [3] (IC50).
For `C[C@]12CC[C@H]3[C@@H](C=CC4=CC(=O)C(O)=C[C@@]43C)[C@@H]1CC[C@@H]2O`, it took 3000 nM to reach half-maximal inhibition in the experiment filed under Homo sapiens [3] (IC50).
Regarding `CC1=C(O)C(=O)C=C2C1=CC=C1[C@@]2(C)CC[C@@]2(C)[C@@H]3C[C@](C)(C(=O)O)CC[C@]3(C)CC[C@]12C` [CELASTROL], in experiment [4], the IC50 worked out at 40 nM.
Regarding `COC(=O)[C@]1(C)CC[C@]2(C)CC[C@]3(C)C4=CCc5c(cc(OC(C)=O)c(OC(C)=O)c5C)[C@]4(C)CC[C@@]3(C)[C@@H]2C1` [PRISTIMEROL DIACETATE], half-maximal inhibition in the experiment listed under Homo sapiens [3] (IC50) required 80 nM.
The same measure, in the same setting: to `CC(=O)Oc1cc2c(c(C)c1OC(C)=O)[C@H]1CC[C@]3(C)[C@@H](OC(C)=O)CC[C@H]3[C@@H]1C=C2` belongs 150 nM.
